According to patent US9815831B2, “3,5-disubstituted-3H-imidazo[4,5-B]pyridine and 3,5-disubstituted-3H-[1,2,3]triazolo[4,5-B] pyridine compounds as modulators of c-Met protein kinases” (Rhizen Pharmaceuticals SA, priority 2012, dated 2017):
Counter-ions that a name gives are not always drawn. Like-named read-outs stand apart in the source and are kept apart here. Values belong to the compound of their own block, whether it stands above or below them.

Key:
[1] = target: T1, human recombinant Met kinase (Homo sapiens, UniProt P08581); assay: Colorimetric determination of c-Met kinase activity (HTScan Met Kinase Assay Kit); assay type: biochemical; settings: for inhibition at 0.1 µM: 100 nM (cells without *), read-out: c-Met Enzyme % inhibition @ 100 nM; for inhibition: cells marked *: tested @ 300 nM, read-out: c-Met Enzyme % inhibition
T1 construct: purchased Cell Signalling Technology, Beverly, Mass
T1 sequence (P08581 25-1390): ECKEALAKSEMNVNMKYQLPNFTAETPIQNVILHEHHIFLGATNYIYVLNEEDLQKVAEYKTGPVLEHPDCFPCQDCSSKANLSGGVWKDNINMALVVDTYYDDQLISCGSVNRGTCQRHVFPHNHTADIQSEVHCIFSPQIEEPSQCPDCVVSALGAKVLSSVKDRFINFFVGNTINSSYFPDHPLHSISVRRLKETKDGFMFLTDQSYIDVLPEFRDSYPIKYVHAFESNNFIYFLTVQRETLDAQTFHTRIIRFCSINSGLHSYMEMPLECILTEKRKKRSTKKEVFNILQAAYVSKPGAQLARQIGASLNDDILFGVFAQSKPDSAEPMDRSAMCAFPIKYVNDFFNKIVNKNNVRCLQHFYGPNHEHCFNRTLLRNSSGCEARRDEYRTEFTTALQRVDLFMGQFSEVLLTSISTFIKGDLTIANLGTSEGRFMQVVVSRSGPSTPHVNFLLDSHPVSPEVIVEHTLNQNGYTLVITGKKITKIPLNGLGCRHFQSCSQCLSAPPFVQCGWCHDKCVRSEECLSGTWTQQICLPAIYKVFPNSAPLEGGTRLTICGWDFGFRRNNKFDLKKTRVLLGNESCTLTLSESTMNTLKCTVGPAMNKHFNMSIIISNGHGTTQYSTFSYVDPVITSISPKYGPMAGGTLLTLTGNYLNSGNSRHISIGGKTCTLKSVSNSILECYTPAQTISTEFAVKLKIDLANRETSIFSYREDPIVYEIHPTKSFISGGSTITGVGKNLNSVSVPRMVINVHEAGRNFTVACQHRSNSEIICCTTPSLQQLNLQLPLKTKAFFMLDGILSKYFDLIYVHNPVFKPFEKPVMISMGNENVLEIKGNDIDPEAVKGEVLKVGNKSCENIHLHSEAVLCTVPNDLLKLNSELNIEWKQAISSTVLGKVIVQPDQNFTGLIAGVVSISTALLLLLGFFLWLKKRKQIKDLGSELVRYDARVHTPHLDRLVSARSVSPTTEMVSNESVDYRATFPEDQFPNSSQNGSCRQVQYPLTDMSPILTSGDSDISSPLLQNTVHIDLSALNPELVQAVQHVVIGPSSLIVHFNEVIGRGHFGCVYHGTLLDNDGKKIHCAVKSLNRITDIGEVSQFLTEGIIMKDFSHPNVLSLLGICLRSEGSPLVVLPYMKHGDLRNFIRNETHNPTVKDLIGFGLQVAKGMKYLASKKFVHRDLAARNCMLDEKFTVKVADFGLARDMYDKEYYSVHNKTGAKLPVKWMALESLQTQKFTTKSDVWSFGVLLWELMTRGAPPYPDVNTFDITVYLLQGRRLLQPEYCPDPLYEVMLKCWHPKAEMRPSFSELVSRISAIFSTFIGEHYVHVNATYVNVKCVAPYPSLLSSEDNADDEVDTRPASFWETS
From the text: 1. MET Kinase Assay Protocol:
Colorimetric Determination of c-Met Kinase Activity
The receptor tyrosine kinase c-Met is a heterodimeric transmembrane glycoprotein involved in several cellular processes that aid in tumor progression. Phosphorylation of the tyrosine residues in the c-Met kinase domain is critical for its activity and the resulting down-stream effects. The colorimetric assay allows detection of the phosphorylated form of a biotinylated peptide upon activation of human recombinant Met kinase.
MET Kinase Assay Protocol:
c-Met Kinase activity shall be determined using an HTScan® Met Kinase Assay Kit (Cell Signalling Technology, Beverly, Mass.) with modifications. All incubations are carried out at room temperature. Briefly, 12.5 μl of a 4× reaction cocktail (DTT/Kinase buffer containing appropriate quantity of human Met kinase) is added to each well of a 96-well plate containing 12.5 μl pre-diluted compound of interest and incubated for 5 minutes. After the initial incubation, 25 μl/well of 2×ATP/biotinylated peptide is added and incubated for an additional 30 minutes. The reaction is terminated by the addition of 50 μl/well stop buffer (50 mM EDTA, pH 8.0). The reaction mixture (25 μl/well) is then transferred to a streptavidin coated plate (Perkin Elmer, Cat#4009-0010) containing 75 μl dH2O and incubated for 60 minutes. The plate is washed with 200 μl/well wash buffer (1×PBS, 0.05% Tween-20). After washing, 100 μl/well phospho-tyrosine mAb (1:1000 in wash buffer containing 1% BSA) is added and incubated for 60 minutes. After another round of washes, 100 μl/well europium labelled anti-mouse IgG (1:500 in wash buffer containing 1% BSA) is added and incubated for an additional 30 minutes. Following additional washes, 100 μl/well Delfia^(R) enhancement solution (Perkin Elmer, Cat#1244-105) is added and incubated for 45 minutes. Florescence is measured on a microplate reader (BMG Labtech., Germany) at 340 nm (excitation) and 615 nm (emission) for calculating % inhibition. Data generated can be analyzed further using Graphpad Prism (Graphpad software, San Diego Calif.) for determination of IC50.
Results: The results are as given below in Table 4A, 4B and 4C as % Inhibition or IC50 of c-Met

MKN-45 = assay: Inhibition of MKN-45 proliferation (MTT); assay type: cell-based, human; settings: MKN-45 proliferation; for GI50: read-out: MKN45 GI50
Protocol: 3. Inhibition of MKN-45 Proliferation:
Cell proliferation assays were carried out using the high Met expressing human gastric adenocarcinoma cell line, MKN-45, according to the following schedule: • Day 1: Cells were plated in 96-well plates in complete growth medium. • Day 2: Compounds at desired concentrations were added. • Day 5: Cell viability was determined using the 3-[4,5-dimethylthiazol-2-yl]-2,5-diphenyltetrazolium bromide (MTT) dye reduction test. Results: The results are as given as % Inhibition of MKN-45 proliferation at 100 nM and GI50 values in Table 4A to 4C above. 4. Inhibition of c-Met Kinase Phosphorylation in MKN-45 Cells: […]

Structure (SMILES): O=C1NCc2cc(-c3ccc4ncn(Cc5ccc6ncccc6c5)c4n3)ccc21 [Example 1033, 5-(3-Quinolin-6-ylmethyl-3H-imidazo[4,5-b]pyridin-5-yl)-2,3-dihydro-isoindol-1-one]
inhibition at 0.1 µM ([1]; Table 4C): < 25%

Structure (SMILES): C/C(=N\N1CC(=O)NC1=O)c1ccc2nnn(Cc3ccc4ncccc4c3)c2n1 [Example 54, (E/Z)-1-(1-(3-(quinolin-6-ylmethyl)-3H-[1,2,3]triazolo[4,5-b]pyridin-5-yl)ethylideneamino)imidazolidine-2,4-dione]
inhibition ([1]; Table 4A): 25 to 50%

Structure (SMILES): NC(=O)c1ccc(-c2ccc3nnn(Cc4cc5ccc[n+]([O-])c5cc4F)c3n2)cc1Cl [Example 1002]
inhibition at 0.1 µM ([1]; Table 4C): < 25%

Structure (SMILES): Cc1cc(-c2ccc3nnn(Cc4ccc5ncccc5c4)c3n2)ccc1C(=O)NOCCO [Example 25a, N-(2-hydroxyethoxy)-2-methyl-4-(3-(quinolin-6-ylmethyl)-3H-[1,2,3]triazolo[4,5-b]pyridin-5-yl)benzamide hydrochloride]
MKN45 % inhibition @ 100 nM (MKN-45; Table 4A, hydrochloride, 0.1 µM): B (B = ≧50-<75%)

Structure (SMILES): NC(=O)c1c(F)cc(-c2ccc3nnn(Cc4ccc5[nH]c(=O)ccc5c4)c3n2)cc1F [Example 1005, 2,6-difluoro-4-(3-((2-oxo-1,2-dihydroquinolin-6-yl)methyl)-3H-[1,2,3]triazolo[4,5-b]pyridin-5-yl)benzamide]
inhibition at 0.1 µM ([1]; Table 4C): < 25%

Structure (SMILES): Cl.O=C(NOCCO)c1ccc(-c2ccc3nnn(Cc4cc5cccnc5cc4F)c3n2)cc1Cl [Example 7a, 2-chloro-4-(3-((7-fluoroquinolin-6-yl)methyl)-3H-[1,2,3]triazolo[4,5-b]pyridin-5-yl)-N-(2-hydroxyethoxy)benzamide hydrochloride]
MKN45 % inhibition @ 100 nM (MKN-45; Table 4A): A (A= ≧75 to 100%)

Structure (SMILES): Cl.O=C(NOCCO)c1c(F)cc(-c2ccc3nnn(Cc4cc5cccnc5cc4F)c3n2)cc1F [Example 9a, 2,6-difluoro-4-(3-((7-fluoroquinolin-6-yl)methyl)-3H-[1,2,3]triazolo[4,5-b]pyridin-5-yl)-N-(2-hydroxyethoxy)benzamide hydrochloride]
MKN45 % inhibition @ 100 nM (MKN-45; Table 4A): A (A= ≧75 to 100%)
GI50 (MKN-45; Table 4A, hydrochloride): 0.025 to 0.05 µM

Structure (SMILES): C/C(=N\OCCNC(N)=O)c1ccc2nnn(Cc3ccc4ncccc4c3)c2n1 [Example 64, 1-(2-(1-(3-(quinolin-6-ylmethyl)-3H-[1,2,3]triazolo[4,5-b]pyridin-5-yl)ethylideneaminooxy)ethyl)urea]
inhibition at 0.1 µM ([1]; Table 4A): 50 to 75%

Structure (SMILES): CCNC(=S)N/N=C(\C)c1ccc2nnn(Cc3ccc4ncccc4c3)c2n1 [Example 55, N-ethyl-2-(1-(3-(quinolin-6-ylmethyl)-3H-[1,2,3]triazolo[4,5-b]pyridin-5-yl)ethylidene)hydrazinecarbothioamide]
inhibition ([1]; Table 4A): < 25%

Structure (SMILES): Cl.O=C(NOCCO)c1c(F)cc(-c2ccc3nnn(Cc4ccc5ncccc5c4)c3n2)cc1F [Example 8a, 2,6-difluoro-N-(2-hydroxyethoxy)-4-(3-(quinolin-6-ylmethyl)-3H-[1,2,3]triazolo[4,5-b]pyridin-5-yl)benzamide hydrochloride]
MKN45 % inhibition @ 100 nM (MKN-45; Table 4A): C (C = ≧25-<50%)

Structure (SMILES): NC(=O)c1c(F)cc(-c2ccc3nnn(Cc4ccc5c(ccc[n+]5[O-])c4)c3n2)cc1F [Example 1001, 6-((5-(4-carbamoyl-3,5-difluorophenyl)-3H-[1,2,3]triazolo[4,5-b]pyridin-3-yl)methyl)quinoline 1-oxide]
inhibition at 0.1 µM ([1]; Table 4C): < 25%

Continued, values first:

inhibition at 0.1 µM ([1]; Table 4C): 75 to 100%
Structure (SMILES): O=C1NCc2cc(-c3ccc4nnn(Cc5ccc6ncccc6c5)c4n3)ccc21 [Example 1032, 5-(3-Quinolin-6-ylmethyl-3H-[1,2,3]triazolo[4,5-b]pyridin-5-yl)-2,3-dihydro-isoindol-1-one]

inhibition at 0.1 µM ([1]; Table 4A): 75 to 100%
Structure (SMILES): Cc1cc(-c2ccc3nnn(Cc4ccc5ncccc5c4)c3n2)ccc1C(=O)NOCCOC(=O)c1ccco1 [Example 47, 2-(2-methyl-4-(3-(quinolin-6-ylmethyl)-3H-[1,2,3]triazolo[4,5-b]pyridin-5-yl)benzamidooxy)ethyl furan-2-carboxylate]

inhibition at 0.1 µM ([1]; Table 4A): 75 to 100%
Structure (SMILES): Cc1cc(-c2ccc3nnn(Cc4ccc5ncccc5c4)c3n2)ccc1C(=O)NOCCOC(=O)c1ccccc1 [Example 46, 2-(2-methyl-4-(3-(quinolin-6-ylmethyl)-3H-[1,2,3]triazolo[4,5-b]pyridin-5-yl)benzamidooxy)ethyl benzoate]

inhibition at 0.1 µM ([1]; Table 4A): 75 to 100%
Structure (SMILES): CC(=O)OCCONC(=O)c1ccc(-c2ccc3nnn(Cc4ccc5ncccc5c4)c3n2)cc1C [Example 43, 2-(2-methyl-4-(3-(quinolin-6-ylmethyl)-3H-[1,2,3]triazolo[4,5-b]pyridin-5-yl)benzamidooxy)ethyl acetate]

inhibition at 0.1 µM ([1]; Table 4A): 75 to 100%
Structure (SMILES): Cc1cc(-c2ccc3nnn(Cc4ccc5ncccc5c4)c3n2)ccc1C(=O)NOCCOC(=O)C(C)C [Example 44, 2-(2-methyl-4-(3-(quinolin-6-ylmethyl)-3H-[1,2,3]triazolo[4,5-b]pyridin-5-yl)benzamidooxy)ethyl isobutyrate]

inhibition at 0.1 µM ([1]; Table 4A): < 25%
Structure (SMILES): Cc1cc(-c2ccc3nnn(Cc4ccc5[nH]c(=O)ccc5c4)c3n2)ccc1C(=O)NOCCO [Example 25d, N-(2-hydroxyethoxy)-2-methyl-4-(3-((2-oxo-1,2-dihydroquinolin-6-yl)methyl)-3H-[1,2,3]triazolo[4,5-b]pyridin-5-yl) benzamide]

inhibition ([1]; Table 4A): < 25%
Structure (SMILES): NC(=O)N/N=C(\N)c1ccc2nnn(Cc3ccc4ncccc4c3)c2n1 [Example 52, 2-(amino(3-(quinolin-6-ylmethyl)-3H-[1,2,3]triazolo[4,5-b]pyridin-5-yl)methylene)hydrazinecarboxamide]

inhibition at 0.1 µM ([1]; Table 4B): 75 to 100%
Structure (SMILES): CC(C)(O)CONC(=O)c1ccc(-c2ccc3ncn(Cc4ccc5ncccc5c4)c3n2)cc1Cl [Example 114, 2-Chloro-N-(2-hydroxy-2-methyl-propoxy)-4-(3-quinolin-6-ylmethyl-3H-imidazo[4,5-b]pyridin-5-yl)-benzamide]

inhibition at 0.1 µM ([1]; Table 4A): 75 to 100%
Structure (SMILES): Cc1cc(-c2ccc3nnn(Cc4ccc5ncccc5c4)c3n2)ccc1C(=O)NOCCOC(=O)C(C)(C)C [Example 45, 2-(2-methyl-4-(3-(quinolin-6-ylmethyl)-3H-[1,2,3]triazolo[4,5-b]pyridin-5-yl)benzamidooxy)ethyl pivalate]

inhibition at 0.1 µM ([1]; Table 4A): 75 to 100%
Structure (SMILES): Cc1cc(-c2ccc3nnn(Cc4ccc5ncccc5c4)c3n2)ccc1C(=O)NO [Example 42, N-Hydroxy-2-methyl-4-(3-quinolin-6-ylmethyl-3H-[1,2,3]triazolo[4,5-b]pyridin-5-yl)-benzamide]

inhibition at 0.1 µM ([1]; Table 4A): 75 to 100%
Structure (SMILES): CN(C)CCCNC(=O)c1ccc(-c2ccc3nnn(Cc4ccc5ncccc5c4)c3n2)cc1 [Example 68, N-(3-Dimethylamino-propyl)-4-(3-quinolin-6-ylmethyl-3H-[1,2,3]triazolo[4,5-b]pyridin-5-yl)-benzamide dihydrochloride]

inhibition ([1]; Table 4B): < 25%
Structure (SMILES): CN(C)CCNC(=O)c1ccc(-c2ccc3ncn(Cc4ccc5ncccc5c4)c3n2)cc1Cl [Example 101, 2-chloro-N-(2-(dimethylamino)ethyl)-4-(3-(quinolin-6-ylmethyl)-3H-imidazo[4,5-b]pyridin-5-yl)benzamide]

inhibition ([1]; Table 4C): < 25%
Structure (SMILES): CCNC(=O)c1ccc(-c2ccc3ncn(Cc4ccc5ncccc5c4)c3n2)cc1Cl [Example 1013, 2-chloro-N-ethyl-4-(3-(quinolin-6-ylmethyl)-3H-imidazo[4,5-b]pyridin-5-yl)benzamide]

GI50 (MKN-45; Homo sapiens, MKN-45, Table 4A): 0.1 to 0.25 µM
Structure (SMILES): CNC(=O)CNC(=O)c1ccc(-c2ccc3nnn(Cc4ccc5ncccc5c4)c3n2)cc1 [Example 2, N-(2-(methylamino)-2-oxoethyl)-4-(3-(quinolin-6-ylmethyl)-3H-[1,2,3]triazolo[4,5-b]pyridin-5-yl)benzamide]
